Results as given in PMC8621857, “Structural Insights into the Azole Resistance of the Candida albicans Darlington Strain Using Saccharomyces cerevisiae Lanosterol 14α-Demethylase as a Surrogate” (Journal of Fungi, 2021).
Read-outs that look alike come from different tables or passages of the source.

Legend:
[1] = test system: C. albicans strain SC5314; test: Agarose disk diffusion assay, control strain SC5314; format: cell-based, Candida albicans; conditions: for effect of Cdr1p inhibitor RC21v3 on azole susceptibility: SC5314, RC21v3 at 6 µM in the assay medium
Description: (§1) Agarose diffusion assays were carried out as described previously using the Darlington strain of C. albicans (Pfizer Ltd., Sandwich, UK) and the control C. albicans database strain SC5314, which is not resistant to azoles. The Cdr1p-specific inhibitor RC21v3 and the CaMdr1p-specific inhibitor MCC1189 (MicroCombiChem, Wiesbaden, Germany), included in the assay medium at 6 µM, were used to investigate the contribution of efflux pumps to azole resistance in the Darlington strain [49, 50, 51].

[2] = test system: S. cerevisiae strain AD3Δ ScErg11 I471T expressing ScLDM6×His I471T; test: Broth microdilution drug susceptibility assay (MIC80), strain AD3Δ ScErg11 I471T; format: cell-based, Saccharomyces cerevisiae; conditions: for MIC80: Saccharomyces cerevisiae, 48 h, 30 °C, pH 6.8, mean (± SEM), n = 3; for MIC80 / MIC80/Relative Amount of ScLDM6×His / fold-resistance based on the relative amount of recombinant enzyme compared with strain AD3Δ: strain I471T; for increased susceptibility compared with AD3Δ: strain AD3Δ ScErg11 I471T, not corrected for expression; for MIC80/Relative Amount of ScLDM6×His / fold-resistance based on the relative amount of recombinant enzyme compared with strain AD3Δ: relative expression 0.51
Description: (§2) The native ScERG11 gene in yeast cells containing mutant ScERG11-6×His constructs in the PDR5 locus was disrupted by homologous recombination with a cassette encoding the His1 selection marker and sequences homologous with the regions bordering the endogenous ScERG11 ORF to create strains AD3Δ ScErg11 Y140H, AD3Δ ScErg11 I471T and AD3Δ ScErg11Y140H I471T [43]. Transformants were selected on SD-His agar plates incubated at 30 °C for 48–72 h. Genomic DNA was extracted, and DNA sequencing as above was used to confirm deletion of the native ERG11. Strain AD3Δ ScErg11 (denoted as AD3Δ), which overexpresses wild-type ScLDM6×His from the PDR5 locus and has the native ScERG11 gene disrupted, was used as a control strain [43].
(§3) Azole susceptibility was measured as the mean drug concentration required to inhibit 80% of yeast growth (MIC80) compared to a non-drug control, using a standard broth microdilution assay. Serial dilutions of short- (FLC and VCZ), medium- (VT-1161), and long-tailed (ITC and PCZ) azole drugs, and the control drugs micafungin (MCF) and amphotericin B (AMB), were prepared in a 96-well microtiter plate in complete synthetic media lacking uracil, buffered to pH 6.8 [34]. Control and test cells were seeded at an optical density of 600 nm (OD600) of 0.005 (~1.5 × 10^4 colony forming units). After incubation for 48 h at 30 °C with constant agitation (200 rpm), the OD600 nm of each well was measured using a Synergy 2 multi-mode plate reader (BioTek Instruments, Winooski, VT, USA). The experiment was repeated three times (a total of nine measurements for the response of each strain to each drug). GraphPad Prism 5.0 software was used for statistical analysis, using a one-way analysis of variance with a Bonferroni post-hoc test. The statistical significance of comparisons was accepted when p < 0.05.

[3] = test system: C. albicans Darlington strain; test: Agarose disk diffusion assay, Darlington strain; format: cell-based, Candida albicans; conditions: for effect of Mdr1 inhibitor MCC1189 on azole susceptibility: MCC1189 at 6 µM in the assay medium; for effect of Cdr1p inhibitor RC21v3 on azole susceptibility: RC21v3 at 6 µM in the assay medium; for agarose diffusion susceptibility: no efflux pump inhibitor
Description: as §1

ScLDM6×His I471T = biological target: T1, ScLDM6×His I471T (Saccharomyces cerevisiae, UniProt P10614, I471T); test: Type II azole binding to affinity purified ScLDM6×His I471T; conditions: for ΔAmax: type II binding
T1 construct: structurally aligned mutations in recombinant hexahistidine-tagged full-length Saccharomyces cerevisiae LDM6×His (ScLDM6×His); 6×His (hexahistidine) (C); made in house; host or cells: Saccharomyces cerevisiae strain AD3Δ ScErg11 I471T (overexpression from the PDR5 locus, native ERG11 disrupted)
Description: Protein purification was carried out using established methods. In brief, a 12 L culture for each control and test strain was grown overnight in 1 L volumes of YPD medium (1% [w/v] yeast extract [BD Difco], 2% [w/v] peptone [BD Difco], and 2% [w/v] D-glucose) in baffled 3 L flasks at 30 °C, with constant agitation (140 rpm). Cells harvested by centrifugation were broken by bead-beating and crude membrane fractions obtained by differential centrifugation, as previously described. The protein concentration of the crude membranes was estimated using the Lowry assay, with bovine serum albumin (Thermo Fisher) used as the protein standard. The crude membranes (1 g at 2.5 mg/mL) were detergent-solubilized using 10× critical micelle concentration (CMC) n-decyl-β-D-maltoside (DM) (Anatrace, Maumee, OH, USA) in buffer containing 10% (w/v) glycerol, 250 mM NaCl, 20 mM Tris pH 7.5, 0.5 mM phenylmethanesulfonyl fluoride (PMSF), and 1 EDTA-free protease inhibitor pill (Roche, Basel, Switzerland) per 300 mL. When the protein was to be used to assess in vitro binding affinity for the test azoles, detergent solubilized ScLDM6×His recovered after centrifugation was affinity purified using a nickel-nitrilotriacetic acid (Ni-NTA)-agarose matrix (Qiagen). The bound ScLDM6×His was eluted from the matrix using an affinity purification buffer containing 50 mM L-histidine. The L-histidine was removed by washing the enzyme through centrifugal filtration, using a 50 kDa molecular-weight cut-off Amicon Ultra-4 filter (Sigma, Auckland, New Zealand).
The concentration of functional ScLDM6×His purified by the nickel affinity method was quantitated using the standard carbon monoxide (CO) binding method. Type II drug binding assays that measure absorbance changes due to ligand interactions with ScLDM6×His were performed for VCZ and ITC, using an established protocol. The peak429nm-trough410nm difference spectra plotted against azole concentration were used to generate drug binding curves. All calculations were performed using GraphPad Prism 5 Software.

[4] = test system: S. cerevisiae strain AD3Δ ScErg11 Y140H expressing ScLDM6×His Y140H; test: Broth microdilution drug susceptibility assay (MIC80), strain AD3Δ ScErg11 Y140H; format: cell-based, Saccharomyces cerevisiae; conditions: for MIC80: Saccharomyces cerevisiae, 48 h, 30 °C, pH 6.8, mean (± SEM), n = 3; for MIC80 / MIC80/Relative Amount of ScLDM6×His / fold-resistance based on the relative amount of recombinant enzyme compared with strain AD3Δ: strain Y140H; for MIC80/Relative Amount of ScLDM6×His / fold-resistance based on the relative amount of recombinant enzyme compared with strain AD3Δ: relative expression 0.74
Description: as §2, §3

[5] = biological target: wild-type and Y140F/H mutants of ScLDM6×His; parameters: method as in earlier work; conditions: no significant differences, ref 5 (supplement; Sagatova et al. 2016); cited from earlier work
[6] = I471T mutant ScLDM6×His, supplement, 'in the 0.5 μM range'
[7] = I471T mutant enzyme, in the presence of 2 µM enzyme, read-out: IC50 from type II binding curves
[8] = ScLDM6×His I471T, 2 µM enzyme, (± SEM), μM, read-out: [Azole]0.5

T1 sequence (P10614 whole entry I471T): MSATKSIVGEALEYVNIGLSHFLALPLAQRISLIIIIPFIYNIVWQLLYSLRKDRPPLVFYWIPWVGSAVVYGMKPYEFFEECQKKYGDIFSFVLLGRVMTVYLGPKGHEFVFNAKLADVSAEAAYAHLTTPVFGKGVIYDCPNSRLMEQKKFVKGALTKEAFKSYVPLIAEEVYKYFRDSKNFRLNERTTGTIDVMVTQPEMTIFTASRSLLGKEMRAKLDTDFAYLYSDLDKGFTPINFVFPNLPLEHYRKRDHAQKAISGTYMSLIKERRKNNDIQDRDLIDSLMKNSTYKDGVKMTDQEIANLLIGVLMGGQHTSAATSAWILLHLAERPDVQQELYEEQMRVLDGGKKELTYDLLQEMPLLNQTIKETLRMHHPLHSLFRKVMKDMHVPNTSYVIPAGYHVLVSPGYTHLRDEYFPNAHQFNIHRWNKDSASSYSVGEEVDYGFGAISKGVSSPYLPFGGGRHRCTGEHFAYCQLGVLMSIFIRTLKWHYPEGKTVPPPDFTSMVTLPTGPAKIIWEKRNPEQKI

| SMILES | effect of Cdr1p inhibitor RC21v3 on azole susceptibility [1] | MIC80 [2] [µM] | increased susceptibility compared with AD3Δ [2] [fold] | MIC80/Relative Amount of ScLDM6×His [2] [µM] | fold-resistance based on the relative amount of recombinant enzyme compared with strain AD3Δ [2] [×] | effect of Mdr1 inhibitor MCC1189 on azole susceptibility [3] | effect of Cdr1p inhibitor RC21v3 on azole susceptibility [3] | agarose diffusion susceptibility [3] | Kd (ScLDM6×His I471T; [6]) [nM] | IC50 (ScLDM6×His I471T; [7]) [µM] | IC50 (ScLDM6×His I471T; [8]) [µM] | ΔAmax (ScLDM6×His I471T; ScLDM6×His I471T, (± SEM)) | Hill number (ScLDM6×His I471T; ScLDM6×His I471T, (± SEM)) | Kd (ScLDM6×His I471T; ScLDM6×His I471T, (± SEM)) [nM] | MIC80 [4] [µM] | MIC80/Relative Amount of ScLDM6×His [4] [µM] | fold-resistance based on the relative amount of recombinant enzyme compared with strain AD3Δ [4] [×] | Kd [5] [nM] | other results |
| --- | --- | --- | --- | --- | --- | --- | --- | --- | --- | --- | --- | --- | --- | --- | --- | --- | --- | --- | --- |
| CCC(C)n1ncn(-c2ccc(N3CCN(c4ccc(OCC5COC(Cn6cncn6)(c6ccc(Cl)cc6Cl)O5)cc4)CC3)cc2)c1=O (stereo not drawn) [ITC, itraconazole] | increased susceptibility | 0.102 | 1.4 | 0.2 | 1.4 | no effect on susceptibility | increased susceptibility | resistant | ~500 | 0.6 to 0.8 | 0.79 | 0.06 (0.001) | 1.55 (0.19) | 700 | 0.112 | 0.151 | 1.1 | ~500 | effect of Mdr1 inhibitor MCC1189 on azole susceptibility [1]: no effect on susceptibility; susceptibility compared with AD3Δ cells ([4]; cells overexpressing ScLDM6×His Y140H, not corrected for expression): slightly increased susceptibility |
| C[C@@H](c1ncncc1F)[C@](O)(Cn1cncn1)c1ccc(F)cc1F [VCZ, voriconazole] | did not alter the susceptibility | 0.074 | 1.2 | 0.145 | 1.6 | did not alter the susceptibility | did not alter the susceptibility | resistant | ~500 | 0.6 to 0.8 | 0.75 | 0.07 (0.003) | 1.88 (0.23) | 580 | 0.164 | 0.221 | 2.4 | ~500 | effect of Mdr1 inhibitor MCC1189 on azole susceptibility ([1]; SC5314, MCC1189 at 6 µM in the assay medium): did not alter the susceptibility; agarose diffusion susceptibility ([1]; SC5314, no efflux pump inhibitor): susceptible; resistance conferred, relative amount of recombinant ScLDM6×His taken into account ([4]; ScLDM6×His Y140H vs AD3Δ): 2.4 fold; MIC80 higher than strain AD3Δ ScErg11 ([4]; strain AD3Δ ScErg11 Y140H vs AD3Δ, not corrected for expression, p < 0.001): ~ 2 fold |
